Measurements taken from ChEMBL document CHEMBL3352774 (J Nat Prod, 2014).

What was measured:
[1] = target: Xanthine dehydrogenase/oxidase (Bos taurus, UniProt P80457); assay: Inhibition of bovine milk xanthine oxidoreductase by spectrophotometry
Xanthine dehydrogenase = target: T1, Xanthine dehydrogenase (Rhodobacter capsulatus, UniProt O54050); assay: Inhibition of Rhodobacter capsulatus xanthine dehydrogenase
T1 sequence (O54050 whole entry): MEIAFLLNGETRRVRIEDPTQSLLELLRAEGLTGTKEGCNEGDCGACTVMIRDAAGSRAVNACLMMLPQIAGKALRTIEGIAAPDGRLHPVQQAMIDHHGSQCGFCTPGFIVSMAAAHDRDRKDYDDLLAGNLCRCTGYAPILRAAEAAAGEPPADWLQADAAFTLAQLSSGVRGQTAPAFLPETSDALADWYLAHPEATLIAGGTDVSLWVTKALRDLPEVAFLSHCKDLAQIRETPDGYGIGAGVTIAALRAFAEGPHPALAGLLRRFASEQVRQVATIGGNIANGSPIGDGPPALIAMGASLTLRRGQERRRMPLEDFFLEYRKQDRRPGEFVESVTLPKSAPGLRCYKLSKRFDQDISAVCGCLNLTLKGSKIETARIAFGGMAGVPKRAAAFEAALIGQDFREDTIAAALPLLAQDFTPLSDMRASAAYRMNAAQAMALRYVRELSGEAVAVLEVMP

[2] = target: T2, Xanthine dehydrogenase/oxidase (Homo sapiens, UniProt P47989); assay: Inhibition of human xanthine oxidase
[3] = target: T2, Xanthine dehydrogenase/oxidase; assay: Inhibition of oxidized form of human xanthine oxidase

T2 sequence (P47989 whole entry): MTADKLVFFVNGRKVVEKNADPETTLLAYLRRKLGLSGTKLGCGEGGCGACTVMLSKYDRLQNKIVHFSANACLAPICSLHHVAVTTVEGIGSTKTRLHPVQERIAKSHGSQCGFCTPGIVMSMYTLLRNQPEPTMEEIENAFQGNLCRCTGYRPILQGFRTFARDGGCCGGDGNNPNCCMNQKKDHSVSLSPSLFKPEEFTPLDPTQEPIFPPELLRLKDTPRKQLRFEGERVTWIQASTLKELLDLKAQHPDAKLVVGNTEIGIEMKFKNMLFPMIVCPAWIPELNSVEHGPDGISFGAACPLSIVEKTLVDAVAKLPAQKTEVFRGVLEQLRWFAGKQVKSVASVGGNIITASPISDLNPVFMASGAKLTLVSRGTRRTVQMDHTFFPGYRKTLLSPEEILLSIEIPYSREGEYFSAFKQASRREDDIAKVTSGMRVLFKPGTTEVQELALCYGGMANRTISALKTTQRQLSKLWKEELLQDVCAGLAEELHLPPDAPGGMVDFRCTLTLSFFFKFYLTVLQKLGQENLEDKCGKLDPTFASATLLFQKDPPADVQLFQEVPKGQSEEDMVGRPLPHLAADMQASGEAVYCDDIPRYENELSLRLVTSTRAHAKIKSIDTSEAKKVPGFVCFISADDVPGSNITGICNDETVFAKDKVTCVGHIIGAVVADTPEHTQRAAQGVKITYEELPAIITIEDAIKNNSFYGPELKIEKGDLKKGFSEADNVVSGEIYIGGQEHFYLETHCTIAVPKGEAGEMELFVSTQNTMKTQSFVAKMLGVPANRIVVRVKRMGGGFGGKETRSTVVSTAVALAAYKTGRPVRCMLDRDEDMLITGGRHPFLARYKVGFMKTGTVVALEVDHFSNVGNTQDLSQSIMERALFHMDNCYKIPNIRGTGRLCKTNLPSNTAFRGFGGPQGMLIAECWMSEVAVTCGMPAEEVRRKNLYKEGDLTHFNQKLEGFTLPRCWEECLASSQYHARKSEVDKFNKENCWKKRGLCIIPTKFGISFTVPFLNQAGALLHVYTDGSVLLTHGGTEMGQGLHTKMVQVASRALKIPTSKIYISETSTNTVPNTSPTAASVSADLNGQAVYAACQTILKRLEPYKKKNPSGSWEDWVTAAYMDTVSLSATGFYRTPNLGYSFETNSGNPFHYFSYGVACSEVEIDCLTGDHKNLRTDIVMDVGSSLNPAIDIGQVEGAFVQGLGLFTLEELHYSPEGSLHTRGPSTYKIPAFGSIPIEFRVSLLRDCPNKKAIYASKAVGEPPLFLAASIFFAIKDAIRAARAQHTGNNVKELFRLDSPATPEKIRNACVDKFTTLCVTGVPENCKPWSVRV
Chain of Xanthine dehydrogenase/oxidase (Bos taurus, UniProt P80457) (P80457 whole entry): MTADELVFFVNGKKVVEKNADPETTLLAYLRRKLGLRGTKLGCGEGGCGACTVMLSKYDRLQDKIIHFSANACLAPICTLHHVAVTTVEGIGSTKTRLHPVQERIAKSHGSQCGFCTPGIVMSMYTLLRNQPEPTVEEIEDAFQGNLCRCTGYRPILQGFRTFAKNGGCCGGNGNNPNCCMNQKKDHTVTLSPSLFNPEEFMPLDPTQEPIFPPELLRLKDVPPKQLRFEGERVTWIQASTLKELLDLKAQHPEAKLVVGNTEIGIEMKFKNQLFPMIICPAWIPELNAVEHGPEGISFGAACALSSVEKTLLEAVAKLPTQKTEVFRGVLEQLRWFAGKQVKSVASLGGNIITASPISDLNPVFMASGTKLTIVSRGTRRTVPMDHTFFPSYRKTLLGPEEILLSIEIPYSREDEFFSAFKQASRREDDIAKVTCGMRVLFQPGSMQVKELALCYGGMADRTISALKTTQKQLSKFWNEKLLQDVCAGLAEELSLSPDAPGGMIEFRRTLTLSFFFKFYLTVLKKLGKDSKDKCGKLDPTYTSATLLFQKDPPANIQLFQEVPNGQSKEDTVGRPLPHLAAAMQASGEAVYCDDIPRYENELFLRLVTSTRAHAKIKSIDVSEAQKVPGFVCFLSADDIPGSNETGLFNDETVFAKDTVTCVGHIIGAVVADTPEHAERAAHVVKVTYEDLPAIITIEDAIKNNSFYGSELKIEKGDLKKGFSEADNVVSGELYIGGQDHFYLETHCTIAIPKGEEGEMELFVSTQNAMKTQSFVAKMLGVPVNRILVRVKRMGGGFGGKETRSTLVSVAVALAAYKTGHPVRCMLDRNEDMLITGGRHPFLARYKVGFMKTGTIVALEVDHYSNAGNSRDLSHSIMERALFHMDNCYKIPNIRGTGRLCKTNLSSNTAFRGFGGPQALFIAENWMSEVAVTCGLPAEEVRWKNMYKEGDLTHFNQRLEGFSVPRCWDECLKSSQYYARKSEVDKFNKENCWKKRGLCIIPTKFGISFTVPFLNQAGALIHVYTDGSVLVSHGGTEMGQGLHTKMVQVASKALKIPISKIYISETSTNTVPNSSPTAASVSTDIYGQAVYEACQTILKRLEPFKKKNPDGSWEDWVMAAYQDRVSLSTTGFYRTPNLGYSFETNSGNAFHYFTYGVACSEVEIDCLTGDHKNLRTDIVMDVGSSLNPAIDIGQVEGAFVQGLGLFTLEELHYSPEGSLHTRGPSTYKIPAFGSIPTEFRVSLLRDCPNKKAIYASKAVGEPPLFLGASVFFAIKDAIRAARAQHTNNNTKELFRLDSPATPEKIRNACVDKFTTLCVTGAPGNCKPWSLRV

## O=c1c(O)c(-c2ccc(O)c(O)c2)oc2cc(O)cc(O)c12 [QUERCETIN]
[1]; cattle
  inhibition (INH): Active

## Nc1nc2ncc(C=O)nc2c(=O)[nH]1
Xanthine dehydrogenase
  Ki: 104 nM
[1]
  Ki: 1.78 nM

## O=c1[nH]c(=O)c2c[nH]nc2[nH]1 [OXYPURINOL]
[2]
  Ki: 35 nM
[3]
  Ki: 1000 nM
